Laboratory results from article PMC12670396, “Crizotinib- or Ceritinib-Conjugated Platinum(IV) Prodrugs As Potent Multiaction Agents Inducing Antiproliferative Effects in 2D and 3D Cancer Cell Models” (Journal of Medicinal Chemistry, 2025).
Like-named read-outs stand apart in the source and are kept apart here.

Legend:
RD = assay: MTT cytotoxic/antiproliferative activity, 72 h; assay type: cell-based, human; conditions: MTT, 72 h
HCT116 = assay: MTT cytotoxic/antiproliferative activity, 72 h; assay type: cell-based, human; conditions: HCT116, MTT, 72 h
NCI-H2228 = assay: MTT cytotoxic/antiproliferative activity, 72 h; assay type: cell-based, human; conditions: NCI-H2228, MTT, 72 h
MDA-MB-231 = assay: MTT cytotoxic/antiproliferative activity, 72 h; assay type: cell-based, human; conditions: MDA-MB-231, MTT, 72 h
A549 = assay: MTT cytotoxic/antiproliferative activity, 72 h; assay type: cell-based, human; conditions: A549, MTT, 72 h
CT26 cell line = assay: MTT cytotoxic/antiproliferative activity, 72 h; assay type: cell-based, murine; conditions: Mus musculus
[1] = tested on: normal (noncancerous) cells MRC-5, IMR-90, hTERT-HPNE, MCF10A; assay: MTT, noncancerous cell lines (average, selectivity index); assay type: cell-based, human; conditions: for IC50: average over MRC-5, IMR-90, hTERT-HPNE, MCF10A, read-out: av norm (average IC50 in noncancerous cells); for SI, selectivity index: IC50(normal cells)/averageIC50(cancer cells)
Procedure: Growth inhibition activity in cancer cell lines was compared with the activity to inhibit the proliferation of normal (noncancerous) cells, namely MRC-5, IMR-90, hTERT-HPNE, and MCF10A cells. Selectivity indexes (SI) were calculated as (IC50 in noncancerous cells)/(average IC50 in cancer cells). […] We further assessed the toxicity of several of the compounds in hepatocyte-like cells (HLC) generated from human pluripotent cells. […]

hTERT-HPNE = assay: MTT cytotoxicity in noncancerous cells, 72 h; assay type: cell-based, human
Procedure: (§1) Growth inhibition activity in cancer cell lines was compared with the activity to inhibit the proliferation of normal (noncancerous) cells, namely MRC-5, IMR-90, hTERT-HPNE, and MCF10A cells. Selectivity indexes (SI) were calculated as (IC50 in noncancerous cells)/(average IC50 in cancer cells). […] We further assessed the toxicity of several of the compounds in hepatocyte-like cells (HLC) generated from human pluripotent cells.
(§2) Cytotoxicity in hepatocyte-like cells (HLC). STEMdiff Hepatocyte Kit was used to generate HLC from human pluripotent stem cells. Cytotoxicity of several of the tested compounds in HLC was evaluated using the sulphorhodamine B assay.

IMR-90 = assay: MTT cytotoxicity in noncancerous cells, 72 h; assay type: cell-based, human; conditions: IMR-90, MTT
Procedure: as §1, §2

MCF10A = assay: MTT cytotoxicity in noncancerous cells, 72 h; assay type: cell-based, human
Procedure: as §1, §2

MRC-5 = assay: MTT cytotoxicity in noncancerous cells, 72 h; assay type: cell-based, human
Procedure: as §1, §2

MMC2 = assay: MTT cytotoxicity in NER-deficient cells, 72 h; assay type: cell-based, Chinese hamster; conditions: for IC50: MMC2 (NER deficient), MTT, 72 h; for Index F: IC50(CHOK1)/IC50(MMC2)
From the text: The cytotoxicity assay was also employed to determine whether DNA damage might be involved in the mechanism of action of the tested compounds. The Chinese hamster ovary MMC2 cell line harbors the ERCC3/XPB mutation, which renders it deficient in nucleotide excision repair (NER), whereas the parent line CHOK1 is proficient in this repair process. Thus, the MMC2 line is often more sensitive to agents causing DNA damage, especially NER-reparable DNA damage, than CHOK1. […] Phosphorylation of H2AX is a commonly used marker of DNA damage. […]

[2] = Cytotoxicity in hepatocyte-like cells, sulphorhodamine B assay; assay type: cell-based; conditions: hepatocyte-like cells from human pluripotent cells
Procedure: as §1, §2

A549 spheroids = assay: Cytotoxicity in 3D spheroids, CellTiter-Glo 3D; assay type: cell-based, human; conditions: Homo sapiens, A549 3D spheroids, 96 h
Procedure: (§3) In the 3D structure, the gradients of gases, nutrients, and therapeutics play a role in the final cytotoxicity of a compound.
(§4) A549 and NCI-H2228 cells were seeded in ultralow attachment, U-shape plates (Corning) at a density of 800 cells/well in the tumorsphere medium consisting of DMEM/F12 medium (Sigma), fibroblast growth factor (20 ng/mL; Sigma), epidermal growth factor 2 (10 ng mL^–1; Sigma), B27 supplement (1×; Gibco), bovine serum albumin, bovine serum albumin (BSA) (1.5 mg mL^–1; Sigma). […] CellTiter-Glo 3D viability assay was used for the experiment evaluation following the manufacturer’s instructions. The bioluminescence signal, proportional to the number of living cells, was measured using the luminescence reader SPARK, and IC50 values were calculated.

NCI-H2228 spheroids = assay: Cytotoxicity in 3D spheroids, CellTiter-Glo 3D; assay type: cell-based, human; conditions: Homo sapiens, NCI-H2228 3D spheroids, 96 h
Procedure: as §3, §4

[3] = tested on: panel of six cancer cell lines; assay: MTT, panel of six cancer cell lines (average, ranges); assay type: cell-based, human; conditions: average over six cancer cell lines, read-out: av cancer (average IC50 in cancer cells)
Procedure: (§5) A panel of six cancer cell lines was used to evaluate the cytotoxic potential of the investigated compounds.
as §2

CHOK1 = assay: MTT cytotoxicity in NER-proficient cells, 72 h; assay type: cell-based, Chinese hamster
From the text: The cytotoxicity assay was also employed to determine whether DNA damage might be involved in the mechanism of action of the tested compounds. The Chinese hamster ovary MMC2 cell line harbors the ERCC3/XPB mutation, which renders it deficient in nucleotide excision repair (NER), whereas the parent line CHOK1 is proficient in this repair process. Thus, the MMC2 line is often more sensitive to agents causing DNA damage, especially NER-reparable DNA damage, than CHOK1. […] Phosphorylation of H2AX is a commonly used marker of DNA damage.
as §2

U87-MG = assay: MTT cytotoxic/antiproliferative activity, 72 h; assay type: cell-based, human; conditions: MTT, 72 h
Procedure: as §5, §2

[4] = Stability in RPMI cell culture medium with serum (HPLC); conditions: for intact Pt(IV) prodrug still present: after 3 days in the media
Procedure: Two conditions must be met for Pt(IV) complexes to serve as true prodrugs: they must remain stable in biological fluids and should be activated by reduction within the cancer cells to release the bioactive components in their active form, thereby facilitating the rapid onset of cytotoxic effects. […] The reduction in the area of the HPLC peak of the compounds was monitored as a function of time, and their half-lives were calculated (Table and Figures S26,S27).
The stock solutions were prepared by dissolving the compounds in a 1:9 (v/v) mixture of DMSO and RPMI media. After preparation, the samples were injected and stored at 37 °C throughout the experiment. The final concentration of the complexes used for the experiment is 50–60 μM.

[5] = Reduction by L-ascorbic acid in phosphate buffer (RP-HPLC); assay type: physicochemical; conditions: 10 equiv L-ascorbic acid, 10% DMSO in 100 mM phosphate buffer pH 7.4, 37 °C
Procedure: The reduction of Pt(IV) complexes was performed by reacting with 10 equiv of L-ascorbic acid in 10% DMSO in 100 mM phosphate buffer (pH 7.4) at 37 °C, and was monitored by reverse-phase analytical HPLC. The half-lives for the reduction were calculated from the decreasing peak areas as a function of time.
The reduction of the Pt(IV) complexes was performed in the presence of 10 equiv of L-ascorbic acid (AA) in phosphate buffer (100 mM, pH 7.4) at 37 °C using reverse-phase analytical HPLC. […] The platinum complexes were dissolved in 10% DMSO with 50% MeOH and added to 100 mM phosphate buffer (pH 7.4). […] The samples were injected and stored at 37 °C throughout the experiment.

[6] = 10% DMSO in RPMI cell culture medium containing serum, 37 °C, HPLC

Row | Structure (SMILES) | IC50 (RD) [nM] | IC50 (HCT116) [nM] | IC50 (NCI-H2228) [nM] | IC50 (MDA-MB-231) [nM] | IC50 (A549) [nM] | stability half-life (t 1/2) ([4]; serum) [h] | SI, selectivity index [1] | IC50 [1] [nM] | reduction half-life (t 1/2) [5] [h] | IC50 (hTERT-HPNE) [nM] | IC50 (IMR-90) [nM] | IC50 (MCF10A) [nM] | IC50 (MRC-5; MRC-5, MTT) [nM] | Index F (MMC2) | IC50 (MMC2) [nM] | IC50 [3] [nM] | IC50 (CHOK1) [nM] | IC50 (U87-MG) [nM] | intact Pt(IV) prodrug still present ([4]; 37 °C) | stability half-life (t 1/2) [4, 6] [h] | also measured
1 | O=C1[O][Pt]2([NH][C@@H]3CCCC[C@H]3[NH]2)[O]C1=O [OxPt, oxaliplatin, reference compound] | 4300 ± 500 | 1300 ± 100 | 3800 ± 400 | 6200 ± 900 | 1600 ± 600 |  |  |  |  |  |  |  |  |  |  |  |  |  |  |  | 
2 | C[C@@H](Oc1cc(-c2cnn(C3CCNCC3)c2)cnc1N)c1c(Cl)ccc(F)c1Cl [compound 1, crizotinib] |  |  |  |  |  |  |  |  |  |  |  |  |  |  |  |  |  |  |  |  | IC50 (CT26 cell line): 1800 ± 400 nM; IC50 (RD; Homo sapiens): 1400 ± 400 nM; IC50 ([1]; Homo sapiens): 6300 nM; IC50 (hTERT-HPNE; Homo sapiens): 6900 ± 800 nM; IC50 (IMR-90; Homo sapiens): 7600 ± 900 nM; IC50 (MCF10A; Homo sapiens, MCF-10A): 6400 ± 700 nM; IC50 (MRC-5; Homo sapiens, MRC5, MRC-5, MTT): 4300 ± 300 nM; IC50 (HCT116; Homo sapiens, HCT-116): 1900 ± 500 nM; IC50 (NCI-H2228; Homo sapiens): 820 ± 70 nM; IC50 (MMC2; Cricetulus griseus): 1400 ± 300 nM; IC50 (MDA-MB-231; Homo sapiens): 1200 ± 300 nM; IC50 [2]: 9000 ± 3000 nM; IC50 (A549 spheroids): 3000 ± 1000 nM; IC50 (NCI-H2228 spheroids): 1500 ± 300 nM; IC50 ([3]; Homo sapiens): 1700 nM; IC50 (CHOK1; Cricetulus griseus, CHO-K1): 1300 ± 500 nM; IC50 (A549; Homo sapiens): 1000 ± 200 nM; IC50 (U87-MG; Homo sapiens, U-87 MG): 3900 ± 500 nM
3 | CC(Oc1cc(-c2cnn(C3CCN(C(=O)[O][Pt]([OH])([Cl])[Cl])CC3)c2)cnc1N)c1c(Cl)ccc(F)c1Cl.N.N (stereo not drawn) [compound 2, ctc-[Pt(NH3)2(crizotinib)(OH)Cl2]] | 2000 ± 400 | 2100 ± 500 | 740 ± 80 | 1900 ± 600 | 800 ± 100 | 75 | 3.4 | 5500 | 2.7 | 5200 ± 600 | 7400 ± 700 | 5100 ± 600 | 4200 ± 900 | 1.95 | 770 ± 90 | 1600 | 1500 ± 600 | 2000 ± 700 |  |  | 
4 | C[C@@H](Oc1cc(-c2cnn(C3CCN(C(=O)[O][Pt]4([O]C(=O)CCCc5ccccc5)[O]C(=O)C(=O)[O]4)CC3)c2)cnc1N)c1c(Cl)ccc(F)c1Cl.N[C@@H]1CCCC[C@H]1N [compound 4, ctc-[Pt(DACH)(crizotinib)(PhB)(Ox)]] | 1600 ± 200 | 1000 ± 200 | 1300 ± 400 | 1500 ± 500 | 1500 ± 400 | >75 | 1.9 | 2900 | 11.5 | 3200 ± 600 | 2900 ± 400 | 2400 ± 500 | 3100 ± 900 | 1.08 | 1300 ± 400 | 1500 | 1400 ± 400 | 1800 ± 400 | more than 80% |  | 
5 | Cc1cc(Nc2ncc(Cl)c(Nc3ccccc3S(=O)(=O)C(C)C)n2)c(OC(C)C)cc1C1CCN(C(=O)[O][Pt]([OH])([Cl])[Cl])CC1.N.N [compound 6, ctc-[Pt(NH3)2(ceritinib)(OH)Cl2]] | 600 ± 200 | 700 ± 300 | 210 ± 60 | 1100 ± 300 | 350 ± 60 |  | 4.8 | 3000 | 2.2 | 2700 ± 500 | 4100 ± 900 | 2600 ± 200 | 2600 ± 900 | 3.79(*) | 290 ± 90 | 630 | 1100 ± 200 | 800 ± 200 |  | 48 | 
6 | Cc1cc(Nc2ncc(Cl)c(Nc3ccccc3S(=O)(=O)C(C)C)n2)c(OC(C)C)cc1C1CCN(C(=O)[O][Pt]2([O]C(=O)CCCc3ccccc3)[O]C(=O)C(=O)[O]2)CC1.N[C@@H]1CCCC[C@H]1N [compound 8, ctc-[Pt(DACH)(ceritinib)(PhB)(Ox)]] | 2200 ± 400 | 880 ± 60 | 800 ± 300 | 1500 ± 400 | 1300 ± 200 |  | 2.5 | 3300 | 12.5 | 3100 ± 600 | 5000 ± 600 | 2900 ± 400 | 2300 ± 600 | 1.22 | 900 ± 200 | 1300 | 1100 ± 200 |  | > 65% | >75 | 
